Assay results from patent publication US20200352184A1, “Prevention of Postharvest Physiological Deterioration using Sulfur-Donating Compounds” (Apeel Technology, Inc., priority 2017, published 2020).

Assay: Saturation concentration in water
Format: physicochemical
Conditions: standard temperature and pressure stated for sodium thiosulfate
Method: For example, at standard temperature and pressure, water can become saturated with sodium thiosulfate at a concentration of about 700 mg/mL. Accordingly, in some embodiments, the concentration of a solution (e.g., an aqueous solution) containing sodium thiosulfate can be about 700 mg/mL. […] Accordingly, in some embodiments, the concentration of the sodium thiosulfate is between about 400 and about 700 mg/mL (e.g., between about 500 and about 700 mg/mL). In some embodiments, the concentration of the sodium thiosulfate salt is about 100, about 200, about 300, about 400, about 500, about 600, or about 700 mg/mL. In some embodiments, the concentration can be lower than 700 mg/mL.
In some embodiments, a metabisulfite solution (e.g., sodium metabisulfite) solution in water can become saturated at about 300 mg/mL. Accordingly, in some embodiments solutions of sodium metabisulfite are used at a concentration of about 300 mg/mL, about 200 mg/mL, or about 100 mg/mL.

concentration at which water becomes saturated | Structure (SMILES)
about 300 mg/mL | O=S([O-])S(=O)(=O)[O-].[Na+].[Na+] [sodium metabisulfite]
about 700 mg/mL | O.O.O.O.O.O=S([O-])([O-])=S.[Na+].[Na+] [sodium thiosulfate, sodium thiosulfate pentahydrate]
